Measured values reported in publication PMC6838048, “A Cell-Free Approach Based on Phospholipid Characterization for Determination of the Cell Specific Unbound Drug Fraction (fu,cell)” (Pharmaceutical Research, 2019).

How the values were obtained:
[1] = fu,cell by equilibrium dialysis of cell homogenate, HEK293; format: in vitro ADME; details: human, dialysis 4 h 37°C, 10 million cells/mL homogenate, read-out: fu,HEK293 Geomean
Protocol: (§1) fu,cell was measured in cassette-mode as previously described with minor modifications ([9]). Briefly, 10 million cells/mL were suspended in HBSS buffered with 10 mM HEPES and homogenized on ice by sonication (VCX 750 Sonicator, 3 mm probe, 20% intensity, 10 s). Up to 8 compounds were combined randomly and spiked into the homogenate for a final concentration of 0.5 μM. Equilibrium dialysis was performed in a Rapid Equilibirum device (Thermo Fisher Scientific) against blank HBSS buffered with 10 mM HEPES, for 4 h at 37°C on an orbital shaker at 900 rpm. Stability controls were kept at 4° and 37°C for the duration of the experiment. The concentration in both dialysis chambers was quantified by extracting the compound with acetonitrile/water (60/40) containing internal standard. Matrixes were matched with blank buffer or cell homogenate, respectively. LC-MS/MS parameters are available in Table S9. All experiments were carried out in triplicates and at least at two independent occasions.
(§2) The unbound fraction in the cell homogenate (fu,hom) was determined according to Eq. (1):1 fu,hom=Cbuffer/Chom and the fraction of unbound compound in the cell (fu,cell) was calculated by correcting for homogenate dilution according to Eq. (2):2 fu,cell=1/DP∙1/fu,hom−1+1 where the dilution constant DP was calculated using Eq. (3), assuming the Vcell to be equal to 6.5 μL/mg protein ([6],[10]). Protein content in the cell homogenates was determined at each experiment using the BCA Protein Assay Reagent Kit (Thermo Fisher Scientific Inc.).3 DP=1/Vcell

[2] = fu,cell by equilibrium dialysis of cell homogenate, HL60; format: in vitro ADME; details: human, dialysis 4 h 37°C, 10 million cells/mL homogenate, read-out: fu,HL60 Geomean
Protocol: as §1, §2

[3] = fu,cell by equilibrium dialysis of cell homogenate, Caco-2; format: in vitro ADME; details: human, Caco-2 cell homogenate, dialysis 4 h 37°C, 10 million cells/mL homogenate, read-out: fu,Caco-2 Geomean
Protocol: as §1
(§3) (3), assuming the Vcell to be equal to 6.5 μL/mg protein ([6],[10]). Protein content in the cell homogenates was determined at each experiment using the BCA Protein Assay Reagent Kit (Thermo Fisher Scientific Inc.).3 DP=1/Vcell

[4] = fu,cell by equilibrium dialysis of cell homogenate, LLC-PK1; format: in vitro ADME; details: pig, dialysis 4 h 37°C, 10 million cells/mL homogenate, read-out: fu,LLCPK1 Geomean
Protocol: as §1, §2

[5] = fu,cell by equilibrium dialysis of cell homogenate, A549; format: in vitro ADME; details: human, dialysis 4 h 37°C, 10 million cells/mL homogenate, read-out: fu,A549 Geomean
Protocol: as §1, §2

[6] = fu,cell by equilibrium dialysis of cell homogenate, K562; format: in vitro ADME; details: human, dialysis 4 h 37°C, 10 million cells/mL homogenate, read-out: fu,K562 Geomean
Protocol: as §1, §2

[7] = fu,cell by equilibrium dialysis of cell homogenate, MDCK; format: in vitro ADME; details: dog, dialysis 4 h 37°C, 10 million cells/mL homogenate, read-out: fu,MDCK Geomean
Protocol: as §1, §3

[8] = fu,cell by equilibrium dialysis of cell homogenate, primary human hepatocytes; format: in vitro ADME; details: primary human hepatocyte homogenate, dialysis 4 h 37°C, 10 million cells/mL homogenate, read-out: fu,HH Geomean
Protocol: as §1, §2

[9] = fu,PL from membrane affinity to PL-covered silica beads, PC; format: in vitro ADME; details: beads coated with pure PC, 15 min incubation; for fraction unbound at 15 min: silica beads covered with phosphatidylcholine (PC), Transil, read-out: fu,PC Geomean
Protocol: (§4) f u,PL was derived from membrane affinity measurements to beads covered with PLs as previously described ([6]).
(§5) Cbuffer was quantified by LC-MS/MS in samples of the supernatant that was obtained after 15 min incubation time on an orbital shaker at 1000 rpm and subsequent separation from the beads by centrifugation at 750 x g. […] Unspecific binding was evaluated by incubations into wells without added lipids.

[10] = fu,PL from membrane affinity to PL-covered silica beads, PS; format: in vitro ADME; details: silica beads covered with phosphatidylserine (PS), Transil; beads coated with pure PS, 15 min incubation; read-out: fu,PS Geomean
Protocol: as §4, §5

[11] = fu,PL from membrane affinity to PL-covered silica beads, PE; format: in vitro ADME; details: beads coated with pure PE, 15 min incubation; read-out: fu,PE Geomean
Protocol: as §4, §5

[12] = fu,PL from membrane affinity to PL-covered silica beads, mixed beads; format: in vitro ADME; details: mixed beads PC:PE:PS:PI 52:22:12:14 mol%, 15 min incubation; read-out: fu,mixed bead Geomean
Protocol: as §4, §5

cell types of the study = details: contributions from several PL subspecies combined (Fig. 5b)

SMILES: COc1ccc2[nH]c([S+]([O-])Cc3ncc(C)c(OC)c3C)nc2c1 (centres unmarked) [Omeprazole]
- fraction unbound at 4 h, 0.5 μM [1]: 0.463
- fraction unbound at 4 h, 0.5 μM [2]: 0.223
- fraction unbound at 4 h, 0.5 μM [3]: 0.181
- fraction unbound at 4 h, 0.5 μM [4]: 0.238
- fraction unbound at 4 h, 0.5 μM [5]: 0.232
- fraction unbound at 4 h, 0.5 μM [6]: 0.419
- fraction unbound at 4 h, 0.5 μM [7]: 0.255
- fraction unbound at 4 h, 0.5 μM [8]: 0.161
- fraction unbound at 15 min [9]: 0.0203
- fraction unbound at 15 min [10]: 0.0154
- fraction unbound at 15 min [11]: 0.0131
- fraction unbound at 15 min [12]: 0.0237

SMILES: Nc1ccc(/N=N/c2ccccc2)c(N)n1 [Phenazopyridine]
- fraction unbound at 4 h, 0.5 μM [1]: 0.0208
- fraction unbound at 4 h, 0.5 μM [2]: 0.0438
- fraction unbound at 4 h, 0.5 μM [3]: 0.0118
- fraction unbound at 4 h, 0.5 μM [4]: 0.0078
- fraction unbound at 4 h, 0.5 μM [5]: 0.0085
- fraction unbound at 4 h, 0.5 μM [6]: 0.0348
- fraction unbound at 4 h, 0.5 μM [7]: 0.0215
- fraction unbound at 4 h, 0.5 μM [8]: 0.0014
- fraction unbound at 15 min [9]: 0.0005
- fraction unbound at 15 min [10]: 0.0006
- fraction unbound at 15 min [11]: 0.0019
- fraction unbound at 15 min [12]: 0.0004

SMILES: CCN(CC)CCCC(C)Nc1c2ccc(Cl)cc2nc2ccc(OC)cc12 (centres unmarked) [Quinacrine]
- fraction unbound at 4 h, 0.5 μM [1]: 0.0075
- fraction unbound at 4 h, 0.5 μM [4]: 0.0008
- fraction unbound at 4 h, 0.5 μM [5]: 0.0009
- fraction unbound at 4 h, 0.5 μM [6]: 0.0164
- fraction unbound at 4 h, 0.5 μM [7]: 0.0036
- fraction unbound at 4 h, 0.5 μM [8]: 0.0066
- fu,PC Geomean [9]: 0.0002
- fraction unbound at 15 min [10]: 0.001
- fraction unbound at 15 min [12]: 0.0029
- predicted versus measured fu,cell (cell types of the study): consistently over-predicted

SMILES: CCOc1cc(CC(=O)N[C@@H](CC(C)C)c2ccccc2N2CCCCC2)ccc1C(=O)O [Repaglinide]
- fraction unbound at 4 h, 0.5 μM [1]: 0.0312
- fraction unbound at 4 h, 0.5 μM [2]: 0.0341
- fraction unbound at 4 h, 0.5 μM [3]: 0.0225
- fraction unbound at 4 h, 0.5 μM [4]: 0.0305
- fraction unbound at 4 h, 0.5 μM [5]: 0.0254
- fraction unbound at 4 h, 0.5 μM [6]: 0.0385
- fraction unbound at 4 h, 0.5 μM [7]: 0.0269
- fraction unbound at 4 h, 0.5 μM [8]: 0.0097
- fraction unbound at 15 min [9]: 0.0114
- fraction unbound at 15 min [10]: 0.0084
- fraction unbound at 15 min [11]: 0.0039
- fraction unbound at 15 min [12]: 0.0095
- predicted versus measured fu,cell (cell types of the study): consistently over-predicted
